One experiment deals with T1, TGF-β1 (Homo sapiens, UniProt P01137).
T1 construct: full length mature TGF-β1 is 112 amino acids in length
The experiment can be described thus: GAG-binding plate assay. As to conditions: wells coated with 5 μg/ml GAG; TGF-β1 100, 200 or 400 ng/ml. The protocol:
GAGs are immobilized in each well and then challenged with TGF-β1 according to the manufacturer's instructions. Briefly, triplicate wells are first pre-coated with 5 μg/ml of heparin, HS^PM, HS16^+ve or HS16^−ve in standard assay buffer (SAB: 100 mM NaCl, 50 mM sodium acetate, 0.2% v/v Tween 20, pH 7.2), and then incubated overnight at room temperature. The plates are next washed carefully three times with SAB, blocked with 250 μl of blocking solution (0.4% w/v fish skin gelatine, Sigma-Aldrich, in SAB) and incubated for 1 h at 37° C. TGF-β1 was then dissolved in blocking solution at a concentration of 100, 200, or 400 ng/ml. The plates are washed three times with SAB and each dilution of protein (200 μl) is dispensed into triplicate wells and incubated for 2 h at 37° C., rinsed with SAB and 200 μl of 750 ng/ml monoclonal mouse anti-TGF-β1 antibody (MAB2401, R&D Systems) added in blocking solution. Plates are then incubated for 1 h at 37° C., washed with SAB, and 200 μl of 1 μg/ml polyclonal goat anti-mouse biotinylated antibody (ab6788, Abcam) added in blocking solution. Again, plates are incubated for 1 h at 37° C., washed with SAB, and 200 μl of 220 ng/ml ExtrAvidin AP (Sigma-Aldrich) is added in blocking solution, incubated for 30 min at 37° C., and then rinsed with SAB. Finally, 200 μl of development reagent (SigmaFAST p-Nitrophenyl phosphate, Sigma-Aldrich) is added, incubated at 37° C. for 40 min and read at 405 nm within 1 h.
To determine the ability of TGF-β1 to bind to heparin, we utilized positively-charged GAG-binding plates (Iduron) as a capture substrate. GAGs were immobilized in each well and then challenged with TGF-β1 according to the manufacturer's instructions. Briefly, triplicate wells were first pre-coated with 5 μg/ml of full length heparin, size-fractionated heparin (dp14, 16, 18, 20, 22 and 24) or selectively […] heparin prepared in standard assay buffer (SAB: 100 mM NaCl, 50 mM sodium acetate, 0.2% v/v Tween 20, pH 7.2), and then incubated overnight at room temperature. The plates were next washed carefully three times with SAB, blocked with 250 μl of blocking solution (0.4% w/v fish skin gelatine, Sigma-Aldrich, in SAB) and incubated for 1 h at 37° C. TGF-β1 was then dissolved in blocking solution at a concentration of 100, 200, or 400 ng/ml. The plates were washed three times with SAB and each dilution of protein (200 μl) was dispensed into triplicate wells and incubated for 2 h at 37° C., rinsed with SAB and 200 μl of 750 ng/ml monoclonal mouse anti-TGF-β1 antibody (MAB2401, R&D Systems) added in blocking solution. […] Finally, 200 μl of development reagent (SigmaFAST p-Nitrophenyl phosphate, Sigma-Aldrich) was added, incubated at 37° C. for 40 min and read at 405 nm within 1 h.

Experiment [1] has as its system chondrogenic differentiation of hMSCs. Kind of experiment: qPCR of chondrogenic micromass pellets (Example 2). It is filed as cell-based, human. Particulars: for SOX9 expression / COMP expression: day 3. The protocol: Total RNA was isolated from chondrogenic micromass pellets using TRIZOL reagent (Life Technologies, CA, USA) according to the manufacturer's protocol. Reverse transcription was carried out on 1 μg RNA using the SuperScript® VILO™ cDNA Synthesis Kit (Life Technologies) following the manufacturer's instructions, with the incubation at 42° C. being carried out for 2 h instead of 1 h. Each qPCR contained 40 ng cDNA, 1 μL TaqMan® primer-probe mix per gene, and 10 μL Taqman® Fast Universal PCR Master Mix (Life Technologies) in a final volume of 20 μL. Thermal cycling conditions were 95° C. for 20 s, followed by 45 cycles of 95° C. for 1 s and 60° C. for 20 s. Each qPCR was run in duplicate and gene expression was normalised to HPRT1 expression to obtain the ΔCt value. The average value of biological triplicates was taken. Chondrogenic micromass pellets cultured in media without GAG or TGF-β1 were used as controls (ΔΔCt). Relative expression levels for each primer set were expressed as fold changes by the 2-ΔΔCt method [Livak, K. J. and T. D. Schmittgen, Analysis of Relative Gene Expression Data Using Real-Time Quantitative PCR and the 2-ΔΔCT Method. Methods, 2001. 25(4): p. 402-408]. The following TaqMan® primer-probe assays (Life technologies) were used:
In order to assess the effects of HS16+ve on the chondrogenic differentiation of hMSCs in vitro, it was first necessary to establish the effects of TGF-β1 alone. Chondrogenic differentiation was carried out using a modified micromass culture system. [Zhang, L., et al., Chondrogenic differentiation of human mesenchymal stem cells: a comparison between micromass and pellet culture systems. Biotechnol Lett, 2010. 32(9): p. 1339-1346.]. Briefly, passage 4 hMSCs were harvested and resuspended in chemically defined chondrogenic media (PT-3003, Lonza, MD, USA) at 2×10^7 cells/mL. Droplets of 12.5 μL were then seeded into the middle of each well in a 24-well plate and left to adhere at 37° C. for 2 h, after which, 500 μL of chondrogenic media supplemented with either 1 or 10 ng/mL of TGF-β1 (100-210, PeproTech) alone or with either 5 or 10 μg/mL of heparin (Sigma-Aldrich), porcine mucosal HS (HSPM) (Celsus laboratories), HS16+ve or HS16-ve was added to each well. The cell droplets coalesced into spherical masses after 24 h. Media was changed every 3 days and the micromasses harvested on days 3, 7, 14 and 21.
Next, hMSCs were differentiated for 21 days in the presence of 1 ng/mL TGF-β1 alone (1 TGF-β1) or in combination with 10 μg/mL of GAG (heparin, HSPM, HS16+ve or HS16−ve) or with 10 ng/mL TGF-β1 (10 TGF-β1) as a positive control.

Where [2] appears, read: 10 μg/mL heparin with 10 ng/mL TGF-β1.

T1 sequence (P01137 279-390 limits assumed): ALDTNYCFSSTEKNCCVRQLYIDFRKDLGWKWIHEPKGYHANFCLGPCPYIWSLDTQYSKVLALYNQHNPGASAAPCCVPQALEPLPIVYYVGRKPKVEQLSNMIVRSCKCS

For the substance heparin, the “TGF-β1 binding to immobilized GAG” value at TGF-β1 is “bound in a dose-dependent manner”. Further, in experiment [1] (21 days, 1 ng/mL TGF-β1 with 10 μg/mL GAG), the “COMP expression increase relative to 1 ng/mL TGF-β1 alone” value was ~2.5 fold. The SOX9 expression entry is on record as “did not significantly alter” in experiment [1] (5 μg/mL heparin, regardless of the amount of TGF-β1); “did not affect SOX9 expression” in experiment [1] (10 μg/mL heparin on its own); “increase the expression of SOX9” in experiment [1] (10 μg/mL heparin with 1 ng/mL TGF-β1); “unable to bring about any change in SOX9 expression” in experiment [1] (setting [2]). Also, the COMP expression entry was “reduced COMP expression levels” in experiment [1] (setting [2]), “slightly reduce” in experiment [1] (5 or 10 μg/mL heparin on their own), “unable to elicit a further increase in COMP expression” in experiment [1] (either dose of heparin with 10 ng/mL TGF-β1) and “increase COMP expression levels in a dose dependent manner” in experiment [1] (heparin with 1 ng/mL TGF-β1). Besides, the Aggrecan expression result in experiment [1] (day 21, 1 ng/mL TGF-β1 with 10 μg/mL GAG) is on record as “similar”.

For the origin of these results see US10596296B2, “Heparan sulphates” (Agency for Science, Technology and Research, priority 2014, dated 2020).
